Data taken from publication PMC6522912, “Evaluation of the published kinase inhibitor set to identify multiple inhibitors of bacterial ATP-dependent mur ligases” (Journal of Enzyme Inhibition and Medicinal Chemistry, 2019).

How the values were obtained:
E. coli MurC = E. coli MurC (Escherichia coli, UniProt P17952); assay: Malachite green inhibition assay, MurC; format: biochemical; conditions: for RA (%) MurC: Table S3, aza stilbene compounds; for remaining activity at 100 µM: 0.25 h, read-out: RA [%] at 100 µM MurC
Chain of E. coli MurC (P17952 whole entry): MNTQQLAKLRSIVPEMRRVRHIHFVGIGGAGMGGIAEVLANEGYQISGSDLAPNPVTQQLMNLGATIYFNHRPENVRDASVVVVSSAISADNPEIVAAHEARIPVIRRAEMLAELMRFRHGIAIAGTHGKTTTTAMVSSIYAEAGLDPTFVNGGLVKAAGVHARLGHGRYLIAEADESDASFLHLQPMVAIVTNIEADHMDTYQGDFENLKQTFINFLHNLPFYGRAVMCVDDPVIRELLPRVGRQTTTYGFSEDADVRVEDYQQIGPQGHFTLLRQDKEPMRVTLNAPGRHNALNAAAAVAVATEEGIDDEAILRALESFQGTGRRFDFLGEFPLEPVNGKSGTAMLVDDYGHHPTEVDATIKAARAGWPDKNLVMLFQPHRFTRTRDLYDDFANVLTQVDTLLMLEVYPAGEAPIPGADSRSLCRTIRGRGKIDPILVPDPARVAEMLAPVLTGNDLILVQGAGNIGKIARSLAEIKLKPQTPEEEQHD
Description: (§1) Inhibition of the Mur ligases was determined using the malachite green assay, with slight modifications.
(§2) In all cases, the final concentration of DMSO was 5% (v/v). After incubation for 15 min at 37 °C, the enzyme reaction was terminated by addition of 100 µM Biomol green reagent, and the absorbance was measured at 650 nm after 5 min. All of the experiments were run in duplicate. Residual activities were calculated with respect to control assays without the tested compounds, but with the 5% DMSO carrier.
(§3) The published kinase inhibitor set compounds were evaluated for inhibition of MurC, D and F ligases from E. coli using the Malachite green assay, which detects orthophosphate generated during enzymatic reactions. To avoid non-specific inhibition due to aggregate formation, all of the compounds were tested in the presence of detergent (0.005% Triton-X114). The data are presented as the residual activities of these Mur ligases in the presence of 100 µM of each test compound (Supporting Information Table S1). […] Additionally, regarding the data of profiled compounds in large panels of human kinase assays[41]

E. coli MurF = E. coli MurF (Escherichia coli, UniProt P11880); assay: biochemical; conditions: for RA (%) MurF: Table S3, aza stilbene compounds; for remaining activity at 100 µM: 0.25 h, read-out: RA [%] at 100 µM MurF
Chain of E. coli MurF (P11880 whole entry): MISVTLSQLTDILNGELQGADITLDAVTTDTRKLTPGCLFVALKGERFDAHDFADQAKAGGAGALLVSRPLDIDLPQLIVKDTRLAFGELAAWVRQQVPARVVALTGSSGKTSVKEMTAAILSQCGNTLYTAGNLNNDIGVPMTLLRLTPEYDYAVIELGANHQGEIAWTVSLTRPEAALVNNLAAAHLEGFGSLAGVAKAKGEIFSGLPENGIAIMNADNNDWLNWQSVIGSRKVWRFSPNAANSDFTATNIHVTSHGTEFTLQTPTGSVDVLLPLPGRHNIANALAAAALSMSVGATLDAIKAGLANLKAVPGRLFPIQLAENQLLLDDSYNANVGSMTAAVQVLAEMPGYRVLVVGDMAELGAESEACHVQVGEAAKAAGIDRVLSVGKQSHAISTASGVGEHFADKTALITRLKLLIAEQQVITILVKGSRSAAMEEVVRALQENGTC
Description: as §1, §2, §3

E. coli MurD = E. coli MurD (Escherichia coli, UniProt P14900); assay: biochemical; conditions: for remaining activity at 100 µM: 0.25 h, Table S1, PKIS screening, read-out: RA [%] at 100 µM MurD
Chain of E. coli MurD (P14900 whole entry): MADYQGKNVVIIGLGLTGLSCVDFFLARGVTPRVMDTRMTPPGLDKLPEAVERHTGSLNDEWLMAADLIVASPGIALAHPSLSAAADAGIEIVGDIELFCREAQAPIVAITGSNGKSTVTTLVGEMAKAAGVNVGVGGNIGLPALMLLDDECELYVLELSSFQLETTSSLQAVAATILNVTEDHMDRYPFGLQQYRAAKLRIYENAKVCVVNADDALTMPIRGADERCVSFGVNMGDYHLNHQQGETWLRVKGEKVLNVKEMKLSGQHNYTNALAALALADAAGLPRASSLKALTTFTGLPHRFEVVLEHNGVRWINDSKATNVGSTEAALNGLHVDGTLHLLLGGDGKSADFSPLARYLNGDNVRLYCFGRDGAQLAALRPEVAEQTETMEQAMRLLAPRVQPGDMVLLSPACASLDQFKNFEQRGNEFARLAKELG
Description: as §1, §2
The published kinase inhibitor set compounds were evaluated for inhibition of MurC, D and F ligases from E. coli using the Malachite green assay, which detects orthophosphate generated during enzymatic reactions. To avoid non-specific inhibition due to aggregate formation, all of the compounds were tested in the presence of detergent (0.005% Triton-X114). The data are presented as the residual activities of these Mur ligases in the presence of 100 µM of each test compound (Supporting Information Table S1).

SMILES | remaining activity at 100 µM (E. coli MurC; Table S1, PKIS screening) [%] | remaining activity at 100 µM (E. coli MurF; Table S1, PKIS screening) [%] | remaining activity at 100 µM (E. coli MurD) [%] | other results
Cc1cc(-c2ccccn2)cc(C)c1C=Cc1cncc(-c2nn[nH]n2)c1 [Compound 6] | – | – | – | RA (%) MurC (E. coli MurC): 59%; RA (%) MurF (E. coli MurF): 76%; RA (%) MurD (E. coli MurD): 83%
Cc1cc(O)cc(C)c1C=Cc1cncc(-c2nn[nH]n2)c1 [Compound 7] | – | – | – | RA (%) MurC (E. coli MurC): 70%; RA (%) MurF (E. coli MurF): 90%; RA (%) MurD (E. coli MurD): 91%
CNC(=O)c1cncc(C=Cc2ccccc2C)c1 [Compound 8] | – | – | – | RA (%) MurC (E. coli MurC): 100%; RA (%) MurF (E. coli MurF): 85%; RA (%) MurD (E. coli MurD): 91%
CNC(=O)c1cncc(C=Cc2c(C)cccc2C)c1 [Compound 9] | – | – | – | RA (%) MurC (E. coli MurC): 85%; RA (%) MurF (E. coli MurF): 54%; RA (%) MurD (E. coli MurD): 83%
CNC(=O)c1cncc(C=Cc2c(Cl)cccc2Cl)c1 [Compound 10] | – | – | – | RA (%) MurC (E. coli MurC): 81%; RA (%) MurF (E. coli MurF): 77%; RA (%) MurD (E. coli MurD): 80%
CNC(=O)c1cncc(C=Cc2ccccc2Cl)c1 [Compound 11] | – | – | – | RA (%) MurC (E. coli MurC): 68%; RA (%) MurF (E. coli MurF): 90%; RA (%) MurD (E. coli MurD): 87%
CCc1cccc(CC)c1C=Cc1cncc(C(=O)NC)c1 [Compound 12] | – | – | – | RA (%) MurC (E. coli MurC): 67%; RA (%) MurF (E. coli MurF): 76%; RA (%) MurD (E. coli MurD): 74%
CNC(=O)Oc1cc(C)c(C=Cc2cncc(C(=O)NC)c2)c(C)c1 [Compound 13] | – | – | – | RA (%) MurC (E. coli MurC): 68%; RA (%) MurF (E. coli MurF): 87%; RA (%) MurD (E. coli MurD): 69%
Cc1cc(O)cc(C)c1C=Cc1cncc(C(N)=O)c1 [Compound 14] | – | – | – | RA (%) MurC (E. coli MurC): 89%; RA (%) MurF (E. coli MurF): 75%; RA (%) MurD (E. coli MurD): 89%
COC(=O)c1cncc(C=Cc2c(C)cc(O)cc2C)c1 [Compound 15] | – | – | – | RA (%) MurC (E. coli MurC): 98%; RA (%) MurF (E. coli MurF): 81%; RA (%) MurD (E. coli MurD): 69%
Cc1cc(O)cc(C)c1C=Cc1cncc(C(=O)OC(C)(C)C)c1 [Compound 16] | – | – | – | RA (%) MurC (E. coli MurC): 75%; RA (%) MurF (E. coli MurF): 69%; RA (%) MurD (E. coli MurD): 96%
COc1ccc2ncnc(Nc3ccc(OCc4ccccc4)cc3)c2c1 [GI261520A] | 58 | 81 | 31 | –
O=C1Nc2ccccc2/C1=C1\CCc2cc(O)ccc21 [GR105659X] | 85 | 100 | 100 | –
c1ccc(Cc2nc3ccc(Nc4ncnc5ccccc45)cc3[nH]2)cc1 [GR269666A] | 77 | 96 | 83 | –
CC1=C(C(=O)Nc2ccc3[nH]ncc3c2)C(c2ccc(F)cc2)NC(=O)N1 (stereo not shown) [GSK180736A] | 80 | 85 | 79 | –
CN(C)C(=O)O[C@H]1CN[C@H](C#Cc2cc3ncnc(Nc4ccc(OCc5cccc(F)c5)c(Cl)c4)c3s2)C1 [GSK182497A] | 43 | 76 | 65 | –
CCNC(=O)O[C@H]1CN[C@H](C#Cc2cc3ncnc(Nc4ccc(OCc5cccc(F)c5)c(Cl)c4)c3s2)C1 [GSK192082A] | 39 | 50 | 70 | –
O=C(O[C@H]1CN[C@H](C#Cc2cc3ncnc(Nc4ccc5c(cnn5Cc5ccccc5)c4)c3s2)C1)N1CCOCC1 [GSK200398A] | 52 | 60 | 61 | –
COc1cc2ncn(-c3cc(OCCc4ccccc4)c(C(N)=O)s3)c2cc1OC [GSK204925A] | 56 | 63 | 68 | –
COc1cc2ncn(-c3cc(O[C@@H](C)c4ccccc4Cl)c(C(N)=O)s3)c2cc1OC [GSK237700A] | – | 75 | – | –
CCn1c(-c2nonc2N)nc2cnc(Oc3cccc(NC(=O)c4ccc(OCCN5CCOCC5)cc4)c3)cc21 [GSK269962B] | 57 | 66 | 58 | –

SMILES | remaining activity at 100 µM (E. coli MurC; Table S1, PKIS screening) [%] | remaining activity at 100 µM (E. coli MurF; Table S1, PKIS screening) [%] | remaining activity at 100 µM (E. coli MurD) [%] | other results
CC1=C(C(=O)Nc2ccc3[nH]ncc3c2)C(c2ccc3ccccc3c2)CC(=O)N1 (stereo not shown) [GSK270822A] | 66 | 68 | 81 | –
CC1=C(C(=O)Nc2ccc3[nH]ncc3c2)C(c2ccc(Cl)c(Cl)c2)CC(=O)N1 (stereo not shown) [GSK299115A] | 78 | 68 | 96 | –
CS(=O)(=O)CCNCc1cc(-c2cc3c(Nc4ccc(OCc5cccc(F)c5)c(Cl)c4)ncnc3s2)cs1 [GSK300014A] | 88 | 95 | 91 | –
COc1cc2ncn(-c3cc(OCc4cccs4)c(C(N)=O)s3)c2cc1OC [GSK312948A] | 98 | 79 | 72 | –
COc1ccc2ncn(-c3cc(O[C@H](C)c4ccccc4C(F)(F)F)c(C(N)=O)s3)c2c1 [GSK317315A] | 53 | 51 | 47 | –
CC1=C(C(=O)Nc2ccc3[nH]ncc3c2)C(c2ccc(F)cc2)NC(c2ccc(C(F)(F)F)nc2)=N1 (stereo not shown) [GSK317354A] | 68 | 96 | 96 | –
COc1cc2ncn(-c3cc(OCc4ccccc4S(C)(=O)=O)c(C#N)s3)c2cc1OC [GSK319347A] | 59 | 75 | 100 | –
CC1=C(C(=O)Nc2ccc3[nH]nc(C)c3c2)C(c2ccc(C(F)(F)F)cc2)CC(=O)N1 (stereo not shown) [GSK466314A] | 79 | 79 | 100 | –
Cc1cc(O)cc(Nc2ccnc3cc(-c4ccccn4)ccc23)c1 [GSK3206866A] | – | – | – | RA [%] at 100 µM MurC (E. coli MurC; Table S1, PKIS screening): 76%; RA [%] at 100 µM MurF (E. coli MurF; Table S1, PKIS screening): 29%
Cc1cccc2c1NC(=O)C2=NNc1ccc(S(N)(=O)=O)cc1 [GW282536X] | 93 | 27 | – | –
c1ccc(Oc2ccc(Nc3ncc(-c4ccccc4)o3)cc2)cc1 [GW641155A] | 66 | 86 | – | –
NC(=O)c1cccc(Nc2nccc(Nc3cccc(F)c3)n2)c1 [GW759710A] | 100 | 100 | – | –
Clc1ccc(CNc2nccc(-c3cnn4ncccc34)n2)cc1 [GW781673X] | 79 | 63 | – | –
COc1cccc(-n2ncc3c(N/N=C/c4ccncc4)ncnc32)c1 [GW784752X] | 76 | 93 | – | –
CC(=O)NCc1cccc(C#Cc2cncnc2Nc2ccc(OCc3cccc(F)c3)c(Cl)c2)c1 [GW807930X] | 66 | 69 | – | –
COc1cccc(-c2c[nH]c3c(N/N=C/c4ccncc4)ncnc23)c1 [GW814408X] | 98 | 87 | – | –
COc1cc(Nc2ncc3c(C)nc(-c4cccc(C(F)(F)F)c4)n3n2)cc(OC)c1OC [GW837331X] | 65 | 89 | – | –
OCc1ccc(-c2nc(-c3ccccn3)c(-c3ccc4c(c3)OCO4)[nH]2)cc1 [SB-431533] | 95 | 75 | – | –
CCn1c(-c2nonc2N)nc2ccccc21 [SB-693162] | 78 | 100 | – | –
Cn1c(-c2nonc2N)nc2cnccc21 [SB-736290] | 71 | 90 | – | –
